What all share (assay type): biochemical
The target of one experiment is PI3K β (Homo sapiens, UniProt P42338). The experiment can be described thus: In vitro IC50, PI3K β. The source says:
(§1) An exemplary system is PI 3-Kinase (human) HTRF™ Assay from Upstate.

The target of another experiment is T1, PI3K γ (Homo sapiens, UniProt P48736).
T1 construct: purchased Sigma
The experiment can be described thus: In vitro IC50, PI3K γ.
Excerpt: as §1

A further experiment has as its target PI3K δ (Homo sapiens, UniProt O00329). The experiment can be described thus: In vitro IC50, PI3K δ. Further details: purchased Upstate.
Excerpt: as §1

A further experiment has as its target T2, PI3K α (Homo sapiens, UniProt P42336).
T2 construct: purchased Upstate
The experiment can be described thus: In vitro IC50, PI3K α.
Excerpt: as §1

The structures appear in SMILES notation. pIC50: −log10 of the molar value.

Chain of PI3K β (P42338 whole entry): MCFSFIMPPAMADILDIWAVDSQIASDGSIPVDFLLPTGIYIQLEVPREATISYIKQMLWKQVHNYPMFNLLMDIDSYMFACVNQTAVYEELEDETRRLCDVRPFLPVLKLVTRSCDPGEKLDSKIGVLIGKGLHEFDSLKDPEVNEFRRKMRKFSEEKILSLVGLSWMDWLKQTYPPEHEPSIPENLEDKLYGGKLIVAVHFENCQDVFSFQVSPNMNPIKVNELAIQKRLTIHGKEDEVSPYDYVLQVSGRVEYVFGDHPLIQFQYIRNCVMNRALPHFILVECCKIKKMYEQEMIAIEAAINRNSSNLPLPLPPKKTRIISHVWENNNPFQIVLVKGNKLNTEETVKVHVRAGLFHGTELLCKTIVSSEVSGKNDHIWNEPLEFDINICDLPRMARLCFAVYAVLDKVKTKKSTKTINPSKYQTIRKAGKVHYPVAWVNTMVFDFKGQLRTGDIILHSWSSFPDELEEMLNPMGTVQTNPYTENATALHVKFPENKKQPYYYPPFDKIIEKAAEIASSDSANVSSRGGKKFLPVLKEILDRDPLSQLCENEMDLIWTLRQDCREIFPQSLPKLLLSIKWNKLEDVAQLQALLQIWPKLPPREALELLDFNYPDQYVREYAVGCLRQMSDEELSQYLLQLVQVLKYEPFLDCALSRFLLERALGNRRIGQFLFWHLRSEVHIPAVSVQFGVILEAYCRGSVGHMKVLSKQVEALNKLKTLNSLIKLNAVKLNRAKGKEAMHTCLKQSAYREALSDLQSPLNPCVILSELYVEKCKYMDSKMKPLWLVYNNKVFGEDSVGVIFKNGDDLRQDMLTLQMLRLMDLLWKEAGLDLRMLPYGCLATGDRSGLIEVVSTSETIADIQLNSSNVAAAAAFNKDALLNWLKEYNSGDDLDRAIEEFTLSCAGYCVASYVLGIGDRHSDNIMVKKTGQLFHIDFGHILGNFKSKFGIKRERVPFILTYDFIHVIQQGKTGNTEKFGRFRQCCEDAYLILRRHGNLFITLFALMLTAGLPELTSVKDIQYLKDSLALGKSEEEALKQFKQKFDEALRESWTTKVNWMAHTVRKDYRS
T1 sequence (P48736 whole entry): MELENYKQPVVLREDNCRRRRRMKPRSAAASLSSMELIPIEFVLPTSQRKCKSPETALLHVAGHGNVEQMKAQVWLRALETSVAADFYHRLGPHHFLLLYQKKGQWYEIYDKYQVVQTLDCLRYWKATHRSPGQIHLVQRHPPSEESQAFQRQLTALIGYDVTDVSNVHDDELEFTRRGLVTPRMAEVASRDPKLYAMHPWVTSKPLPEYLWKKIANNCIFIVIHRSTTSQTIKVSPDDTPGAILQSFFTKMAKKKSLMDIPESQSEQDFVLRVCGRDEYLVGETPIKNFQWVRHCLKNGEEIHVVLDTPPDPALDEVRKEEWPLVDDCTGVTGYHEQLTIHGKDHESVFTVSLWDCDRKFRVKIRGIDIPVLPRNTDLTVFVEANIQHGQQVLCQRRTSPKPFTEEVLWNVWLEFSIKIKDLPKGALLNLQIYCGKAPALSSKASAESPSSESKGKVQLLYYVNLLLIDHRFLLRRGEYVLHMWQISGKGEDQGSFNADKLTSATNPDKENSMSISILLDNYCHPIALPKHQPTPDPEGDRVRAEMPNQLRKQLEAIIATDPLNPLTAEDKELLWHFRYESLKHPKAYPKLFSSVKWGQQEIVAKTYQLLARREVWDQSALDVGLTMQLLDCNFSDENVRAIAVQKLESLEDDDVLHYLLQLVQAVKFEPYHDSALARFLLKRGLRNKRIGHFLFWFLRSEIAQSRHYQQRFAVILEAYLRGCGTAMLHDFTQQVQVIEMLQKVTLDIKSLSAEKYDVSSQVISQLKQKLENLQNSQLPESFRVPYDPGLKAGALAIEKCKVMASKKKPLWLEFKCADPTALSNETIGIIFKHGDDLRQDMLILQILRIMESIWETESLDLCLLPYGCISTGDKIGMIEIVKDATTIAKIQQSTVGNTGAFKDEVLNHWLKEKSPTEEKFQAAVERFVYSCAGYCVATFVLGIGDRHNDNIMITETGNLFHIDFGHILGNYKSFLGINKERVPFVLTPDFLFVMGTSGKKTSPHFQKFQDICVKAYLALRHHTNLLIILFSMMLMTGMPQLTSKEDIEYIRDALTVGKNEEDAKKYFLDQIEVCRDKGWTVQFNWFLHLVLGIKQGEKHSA
T2 sequence (P42336 whole entry): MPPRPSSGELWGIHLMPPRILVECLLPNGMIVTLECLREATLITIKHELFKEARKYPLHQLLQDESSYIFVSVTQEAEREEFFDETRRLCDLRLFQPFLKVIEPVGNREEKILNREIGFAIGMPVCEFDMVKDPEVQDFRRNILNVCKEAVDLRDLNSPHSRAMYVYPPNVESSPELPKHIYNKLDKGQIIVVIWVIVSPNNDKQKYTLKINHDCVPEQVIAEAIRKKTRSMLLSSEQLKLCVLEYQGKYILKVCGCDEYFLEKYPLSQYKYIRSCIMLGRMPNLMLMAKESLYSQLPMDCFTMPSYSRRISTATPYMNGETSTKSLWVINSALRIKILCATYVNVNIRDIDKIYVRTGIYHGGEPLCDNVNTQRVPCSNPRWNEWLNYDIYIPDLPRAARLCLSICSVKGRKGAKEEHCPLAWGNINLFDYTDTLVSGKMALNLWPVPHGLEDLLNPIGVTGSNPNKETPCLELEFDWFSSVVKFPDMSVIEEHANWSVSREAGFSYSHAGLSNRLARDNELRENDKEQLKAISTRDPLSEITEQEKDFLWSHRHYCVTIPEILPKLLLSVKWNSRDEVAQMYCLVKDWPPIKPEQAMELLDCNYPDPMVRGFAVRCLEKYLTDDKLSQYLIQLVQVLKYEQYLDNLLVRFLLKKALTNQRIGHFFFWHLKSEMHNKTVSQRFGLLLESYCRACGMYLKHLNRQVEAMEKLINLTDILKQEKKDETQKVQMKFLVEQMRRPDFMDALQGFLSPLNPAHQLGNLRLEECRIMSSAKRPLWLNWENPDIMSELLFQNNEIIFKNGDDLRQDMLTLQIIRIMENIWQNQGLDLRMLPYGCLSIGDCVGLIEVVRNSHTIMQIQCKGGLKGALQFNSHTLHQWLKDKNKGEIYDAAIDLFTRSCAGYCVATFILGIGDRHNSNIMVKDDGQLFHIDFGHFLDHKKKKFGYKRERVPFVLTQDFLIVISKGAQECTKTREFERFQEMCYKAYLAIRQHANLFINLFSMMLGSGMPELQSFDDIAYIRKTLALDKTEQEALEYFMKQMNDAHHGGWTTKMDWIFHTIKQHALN
T2 sequence (P27986 whole entry partner): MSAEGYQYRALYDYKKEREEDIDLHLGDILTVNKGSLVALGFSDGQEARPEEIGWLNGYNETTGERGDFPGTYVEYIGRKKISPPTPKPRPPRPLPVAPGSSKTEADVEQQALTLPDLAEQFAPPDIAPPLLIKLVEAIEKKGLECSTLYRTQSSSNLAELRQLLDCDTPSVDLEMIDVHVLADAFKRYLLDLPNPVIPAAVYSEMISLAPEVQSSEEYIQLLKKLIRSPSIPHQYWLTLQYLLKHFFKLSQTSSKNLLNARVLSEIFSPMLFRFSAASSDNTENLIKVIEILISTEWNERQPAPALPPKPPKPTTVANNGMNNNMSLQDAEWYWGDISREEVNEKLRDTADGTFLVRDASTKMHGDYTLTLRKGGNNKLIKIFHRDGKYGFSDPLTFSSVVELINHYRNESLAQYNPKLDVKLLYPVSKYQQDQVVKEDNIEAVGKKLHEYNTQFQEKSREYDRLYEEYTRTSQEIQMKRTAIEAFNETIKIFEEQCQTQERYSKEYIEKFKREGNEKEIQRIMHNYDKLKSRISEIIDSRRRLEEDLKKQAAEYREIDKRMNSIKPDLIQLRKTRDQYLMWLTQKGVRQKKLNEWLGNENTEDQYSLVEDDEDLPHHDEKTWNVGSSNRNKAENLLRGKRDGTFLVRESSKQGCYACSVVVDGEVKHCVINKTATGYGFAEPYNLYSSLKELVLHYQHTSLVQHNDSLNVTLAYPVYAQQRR
Chain of PI3K δ (O00329 whole entry): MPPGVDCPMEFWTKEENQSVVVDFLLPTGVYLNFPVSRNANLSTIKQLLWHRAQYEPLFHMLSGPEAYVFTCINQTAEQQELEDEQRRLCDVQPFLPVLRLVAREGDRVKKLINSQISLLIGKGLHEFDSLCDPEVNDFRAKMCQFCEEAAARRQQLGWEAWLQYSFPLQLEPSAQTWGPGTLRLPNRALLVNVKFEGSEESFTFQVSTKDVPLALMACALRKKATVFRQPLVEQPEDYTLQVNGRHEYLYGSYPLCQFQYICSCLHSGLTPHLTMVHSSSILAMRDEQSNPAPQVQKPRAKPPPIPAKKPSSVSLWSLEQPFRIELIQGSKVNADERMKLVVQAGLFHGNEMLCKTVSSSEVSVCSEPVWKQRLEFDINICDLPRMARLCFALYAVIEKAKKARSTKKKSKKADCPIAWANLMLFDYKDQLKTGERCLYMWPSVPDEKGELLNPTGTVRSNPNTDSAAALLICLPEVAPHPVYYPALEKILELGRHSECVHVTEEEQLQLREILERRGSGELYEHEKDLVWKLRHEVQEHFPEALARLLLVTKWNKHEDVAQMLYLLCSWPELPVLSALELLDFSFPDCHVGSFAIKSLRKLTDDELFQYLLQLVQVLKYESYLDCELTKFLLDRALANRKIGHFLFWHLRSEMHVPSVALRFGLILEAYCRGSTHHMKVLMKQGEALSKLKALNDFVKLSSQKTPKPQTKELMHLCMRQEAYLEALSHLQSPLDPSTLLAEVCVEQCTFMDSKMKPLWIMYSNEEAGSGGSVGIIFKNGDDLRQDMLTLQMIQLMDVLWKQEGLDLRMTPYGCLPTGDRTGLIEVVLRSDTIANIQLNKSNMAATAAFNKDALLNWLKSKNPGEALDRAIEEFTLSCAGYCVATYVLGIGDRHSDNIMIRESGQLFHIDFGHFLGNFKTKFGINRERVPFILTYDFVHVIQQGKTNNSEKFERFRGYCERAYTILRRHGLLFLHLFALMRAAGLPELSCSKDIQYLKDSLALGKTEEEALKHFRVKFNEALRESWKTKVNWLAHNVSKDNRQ
Chain of PI3K δ (P27986 whole entry partner): as the sequence (P27986 whole entry partner) above

Consider `Cc1ccccc1-n1c(Cn2nc(C#CC3CC3)c3c(N)ncnc32)cc2cccc(C)c2c1=O` [Compound 14], for which the pIC50 at PI3K β was < 5.00; against PI3K γ, > 6.00; against PI3K δ, > 6.00; on PI3K α, < 5.00.
With `Cc1cccc2cc(Cn3nc(-c4cnn(CCO)c4)c4c(N)ncnc43)n(-c3ccccc3F)c(=O)c12` [Compound 162], the pIC50 on PI3K β was < 5.00; against PI3K γ, > 6.00; against PI3K δ it was > 7.00; against PI3K α, < 5.00.
As for `CCC(Nc1ncnc2[nH]cnc12)c1cc2cccc(C)c2c(=O)n1C(C)C` (stereo not shown) [Compound 219], the negative-log IC50 (pIC50) at PI3K β was > 5.00; against PI3K γ, > 5.00; against PI3K δ, > 7.00; at PI3K α, < 5.00.
With `Cc1cccc2cc(Cn3nc(-c4cc(O)cc(F)c4)c4c(N)ncnc43)n(-c3ccccc3Cl)c(=O)c12` [Compound 97], the pIC50 is > 6.00 against PI3K β, > 7.00 against PI3K γ, > 7.00 at PI3K δ and > 5.00 at PI3K α.
Take `Cc1ccccc1-n1c(Cn2nc(CN3CCOCC3)c3c(N)ncnc32)cc2cccc(C)c2c1=O` [Compound 194]: the pIC50 was < 5.00 against PI3K β, < 5.00 against PI3K γ, > 5.00 at PI3K δ and < 5.00 against PI3K α.
Turning to `Cc1cccc2cc(Cn3nc(C#C[C@@H](C)O)c4c(N)ncnc43)n(-c3ccccc3F)c(=O)c12` [Compound 28], the pIC50 against PI3K β is < 5.00; against PI3K γ it was > 6.00; on PI3K δ, > 7.00; against PI3K α, < 5.00.
On to `Cc1cccnc1-n1c(Cn2nc(-c3ccc(Cl)c(O)c3)c3c(N)ncnc32)cc2cccc(C)c2c1=O` [Compound 72], for which the pIC50 on PI3K β was > 5.00; against PI3K γ it was > 7.00; on PI3K δ it was > 7.00; at PI3K α, < 5.00.
In the case of `Cc1cccc2cc(Cn3nc(-c4cc(O)cc(F)c4)c4c(N)ncnc43)n(-c3ccccc3C(C)C)c(=O)c12` [Compound 95], the pIC50 is > 6.00 on PI3K β, > 7.00 against PI3K γ, > 7.00 at PI3K δ and > 6.00 against PI3K α.
As to `Cc1ccccc1-n1c(Cn2nc(-c3ccc4sc(N)nc4c3)c3c(N)ncnc32)cc2cccc(C)c2c1=O` [Compound 276], the pIC50 was > 6.00 against PI3K β, > 7.00 at PI3K γ, > 7.00 on PI3K δ and > 6.00 on PI3K α.
On to `Nc1ncnc2c1c(-c1cn[nH]c1)nn2Cc1cc2cccc(F)c2c(=O)n1-c1ccccc1F` [Compound 189], for which the pIC50 against PI3K β is < 5.00; on PI3K γ, > 5.00; on PI3K δ it was > 6.00; at PI3K α, < 5.00.
Turning to `Cc1cccc2cc(Cn3nc(I)c4c(N)ncnc43)n(C(C)C)c(=O)c12` [Compound 60], the pIC50 is < 5.00 at PI3K β, < 5.00 against PI3K γ, > 7.00 against PI3K δ and < 5.00 on PI3K α.
In the case of `Cc1cccc2cc(Cn3nc(-c4ccc(O)c(Cl)c4)c4c(N)ncnc43)n(-c3ccccc3F)c(=O)c12` [Compound 26], the pIC50 against PI3K β is < 5.00; against PI3K γ, > 7.00; against PI3K δ, > 6.00; against PI3K α, < 5.00.
Turning to `Cc1cccc2cc([C@H](C)Nc3cc(N)nc(N)n3)n(C3CC3)c(=O)c12` [Compound 284], the pIC50 was < 5.00 at PI3K β, > 5.00 against PI3K γ, > 5.00 at PI3K δ and < 5.00 at PI3K α.
For `Cc1cccc2cc([C@H](C)Nc3ncnc4[nH]cc(Cl)c34)n(-c3ccccc3)c(=O)c12` [Compound 262], the pIC50 was > 7.00 against PI3K β, > 7.00 on PI3K γ, > 7.00 on PI3K δ and > 6.00 against PI3K α.
Turning to `Cc1cccc2cc([C@H](C)Nc3nc(Cl)ncc3Cl)n(-c3ccccc3)c(=O)c12` [Compound 248], the pIC50 on PI3K β is < 5.00; against PI3K γ it was > 5.00; against PI3K δ, > 6.00; on PI3K α, < 5.00.
For `Cc1cccc2cc(C(C)Nc3ncnc4[nH]cnc34)n(C(C)C)c(=O)c12` (stereo not shown) [Compound 209], the pIC50 at PI3K β was > 5.00; on PI3K γ, > 6.00; against PI3K δ it was > 7.00; at PI3K α, > 5.00.
In the case of `Cc1ccccc1-n1c(C(C)Nc2ncnc3[nH]cnc23)cc2cccc(C)c2c1=O` (stereo not shown) [Compound 191], the pIC50 against PI3K β was > 5.00; on PI3K γ it was > 7.00; against PI3K δ, > 7.00; on PI3K α, < 5.00.
In the case of `Cc1cccc2cc([C@H](C)Nc3ncnc4[nH]c(O)nc34)n(-c3ccccc3)c(=O)c12` [Compound 263], the pIC50 against PI3K β, at PI3K γ, against PI3K δ and against PI3K α was < 5.00 in each case.
In the case of `Cc1ccccc1-n1c(Cn2nc(CCC(=O)N3CCOCC3)c3c(N)ncnc32)cc2cccc(C)c2c1=O` [Compound 193], the pIC50 at PI3K β is < 5.00; against PI3K γ it was < 5.00; at PI3K δ it was > 5.00; against PI3K α it was < 5.00.
`CCC(Nc1ncnc2[nH]cnc12)c1cc2cccc(C)c2c(=O)n1-c1ccccc1C` (stereo not shown) [Compound 202]: the pIC50 is > 5.00 against PI3K β, > 6.00 on PI3K γ, > 7.00 against PI3K δ and < 5.00 on PI3K α.
`CCC(Nc1ncnc2[nH]cnc12)c1cc2cccc(C)c2c(=O)n1-c1ccccc1` (stereo not shown) [Compound 211]: the pIC50 was > 5.00 on PI3K β, > 7.00 against PI3K γ, > 7.00 at PI3K δ and < 5.00 against PI3K α.
Regarding `Cc1cccc2cc([C@H](C)Nc3ncnc4[nH]cc(F)c34)n(C3CC3)c(=O)c12` [Compound 278], the pIC50 against PI3K β is > 7.00; at PI3K γ, > 7.00; against PI3K δ, > 7.00; on PI3K α, > 6.00.
With `Cc1ccccc1-n1c(Cn2nc(-c3ccc(Cl)c(O)c3)c3c(N)ncnc32)cc2cccc(C)c2c1=O` [Compound 23], the pIC50 is > 5.00 on PI3K β, > 7.00 on PI3K γ, > 7.00 against PI3K δ and < 5.00 against PI3K α.
`CC(=O)Nc1nc2cc(-c3nn(Cc4cc5cccc(C)c5c(=O)n4-c4ccccc4)c4ncnc(N)c34)ccc2s1` [Compound 275]: the pIC50 is < 5.00 at PI3K β, > 6.00 at PI3K γ, > 6.00 on PI3K δ and < 5.00 on PI3K α.
Turning to `Cc1cccc2cc(Cn3nc(-c4cccc(O)c4)c4c(N)ncnc43)n(C3CC3)c(=O)c12` [Compound 102], the pIC50 at PI3K β is > 6.00; on PI3K γ, > 7.00; against PI3K δ, > 7.00; against PI3K α, > 6.00.
As for `Cc1cccc2cc(Cn3nc(-c4ccc(O)c(F)c4)c4c(N)ncnc43)n(-c3ccccc3F)c(=O)c12` [Compound 29], the pIC50 against PI3K β was < 5.00; on PI3K γ, > 7.00; against PI3K δ it was > 6.00; against PI3K α, < 5.00.
As for `Cc1cccc2cc(Cn3nc(-c4ccc5nc(N)sc5c4)c4c(N)ncnc43)n(-c3ccccc3)c(=O)c12` [Compound 252], the pIC50 at PI3K β is > 6.00; at PI3K γ, > 7.00; against PI3K δ, > 7.00; on PI3K α it was > 7.00.
Regarding `Cc1ccccc1-n1c(Cn2nc(-c3ccc4ncnc(N)c4c3)c3c(N)ncnc32)cc2cccc(C)c2c1=O` [Compound 152], the pIC50 was < 5.00 against PI3K β, > 7.00 against PI3K γ, > 7.00 on PI3K δ and > 5.00 against PI3K α.
`Cc1cccc2cc([C@H](C)Nc3ncnc4[nH]cc(Br)c34)n(C3CC3)c(=O)c12` [Compound 272]: the pIC50 on PI3K β is > 7.00; against PI3K γ, > 7.00; at PI3K δ it was > 7.00; on PI3K α it was > 6.00.
Turning to `Cc1cccc2cc(Cn3nc(-c4cn[nH]c4)c4c(N)ncnc43)n(-c3ccccc3C(C)C)c(=O)c12` [Compound 185], the pIC50 at PI3K β is > 6.00; against PI3K γ, > 7.00; at PI3K δ, > 7.00; at PI3K α it was > 5.00.
In the case of `Cc1cccc2cc(Cn3nc(-c4cccc(O)c4)c4c(N)ncnc43)n(-c3ccccc3F)c(=O)c12` [Compound 10], the pIC50 at PI3K β was < 5.00; on PI3K γ it was > 6.00; on PI3K δ, > 7.00; at PI3K α it was < 5.00.
As for `Cc1ccccc1-n1c(Cn2nc(C#C[C@@H](C)O)c3c(N)ncnc32)cc2cccc(F)c2c1=O` [Compound 43], the pIC50 on PI3K β was < 5.00; against PI3K γ, < 5.00; against PI3K δ, > 6.00; at PI3K α, < 5.00.
Turning to `CCN(Cc1cc2cccc(C)c2c(=O)n1-c1ccccc1C)c1ncnc2[nH]cnc12` [Compound 186], the pIC50 was < 5.00 against PI3K β, > 5.00 on PI3K γ, > 5.00 against PI3K δ and < 5.00 on PI3K α.
With `Cc1cccc(C)c1-n1c(CNc2ncnc3[nH]cnc23)cc2cccc(C)c2c1=O` [Compound 218], the pIC50 against PI3K β is < 5.00; at PI3K γ, > 6.00; at PI3K δ, > 7.00; at PI3K α, < 5.00.
In the case of `COc1ccccc1-n1c(Cn2nc(-c3cc(O)cc(F)c3)c3c(N)ncnc32)cc2cccc(C)c2c1=O` [Compound 84], the pIC50 was > 5.00 on PI3K β, > 7.00 against PI3K γ, > 7.00 at PI3K δ and > 5.00 on PI3K α.
For the compound `Cc1cccc2cc([C@H](C)Nc3ncnc4[nH]nc(C#N)c34)n(-c3ccccc3)c(=O)c12` [Compound 255], the pIC50 on PI3K β is > 7.00; on PI3K γ, > 7.00; against PI3K δ, > 7.00; against PI3K α, > 5.00.
As to `Cc1cccc2cc([C@H](C)Nc3ncnc4[nH]cc(C#N)c34)n(C3CC3)c(=O)c12` [Compound 289], the pIC50 was > 7.00 on PI3K β, > 7.00 against PI3K γ, > 7.00 at PI3K δ and > 6.00 against PI3K α.

For orientation: pIC50 means the negative decadic logarithm of the IC50, by convention in mol/L. A lower pIC50 goes with a high IC50.

Source of the values: patent publication US20140120083A1, “TREATMENT OF CANCERS USING PI3 KINASE ISOFORM MODULATORS” (INFINITY PHARMACEUTICALS, INC., priority 2012, published 2014).
